Reference: patent US12497637B1, “Stabilization of tryptamines by denaturing enzymes, optimizing ionization states, and controlling confounding variables” (Convergent Health Sciences LLC, priority 2025, dated 2025)

Columns and labels:
[1] = Spontaneous dephosphorylation of phosphoryloxytryptamines in 100 millimolar phosphate buffers, 85 degrees Celsius, one hour, HPLC at 220 nanometers
[2] = cited from earlier work
phosphatase enzyme = test: Colorimetric assay with a para-nitrophenyl phosphate substrate for residual phosphatase enzyme activity; format: biochemical, Psilocybe cubensis; conditions: relative to the water control
Description: The denaturation of relevant phosphatase enzymes may be assessed, for example, by performing a colorimetric assay with a para-nitrophenyl phosphate substrate. Para-nitrophenyl phosphate comprises a phosphorylated aromatic, which is chemically similar to the phosphorylated indole of a phosphoryloxytryptamine. Colorimetric assays performed with a para-nitrophenyl phosphate substrate therefore provide suitable methods to assess […] that are relevant to this disclosure.
(§1) 20 milliliters of 6 molar guanidinium chloride in distilled, deionized water and buffered to a pH of 6.0 with 50 millimolar phosphate buffer is added to each of three opaque 50-milliliter polypropylene centrifuge tubes. 20 milliliters of 8 molar urea in distilled, deionized water and buffered to a pH of 6.0 with 50 millimolar phosphate buffer is added to each of three opaque 50-milliliter polypropylene centrifuge tubes. 20 milliliters of 4 molar ammonium sulfate in distilled, deionized water and buffered to a pH of 6.0 with 50 millimolar MES buffer is added to each of three opaque 50-milliliter polypropylene centrifuge tubes. 20 milliliters of 2 percent sodium dodecyl sulfate (w/v) in distilled, deionized water and buffered to a pH of 6.0 with 50 millimolar phosphate buffer is added to each of three opaque 50-milliliter polypropylene centrifuge tubes. 20 milliliters of 1 percent Triton X-100 (v/v) in distilled, deionized water and buffered to a pH of 6.0 with 50 millimolar phosphate buffer is added to each of three opaque 50-milliliter polypropylene centrifuge tubes. 20 milliliters of 2 percent octyl glucoside (w/v) in distilled, deionized water and buffered to a pH of 6.0 with 50 millimolar phosphate buffer is added to each of three opaque 50-milliliter polypropylene centrifuge tubes. 20 milliliters of distilled, deionized water is buffered to a pH of 6.0 with 50 millimolar phosphate buffer and added to each of three opaque 50-milliliter polypropylene centrifuge tubes. Each of the centrifuge tubes is placed on ice.
(§2) The stipes of three freshly-harvested Psilocybe cubensis fruiting bodies are each cut into seven sections of approximately 1 gram each, weighed, and immediately placed into one of the polypropylene tubes such that a section of each stipe is placed in each of the guanidinium, urea, ammonium sulfate, sodium dodecyl sulfate, Triton X-100, and octyl glucoside solutions as well as the water control. Each of the samples is homogenized and then sonicated within the polypropylene tubes. The polypropylene tubes are then loaded onto an orbital shaker in a cold room at 4 degrees Celsius and mixed at 450 revolutions per minute for four hours. After mixing, the samples are placed on ice.
(§3) The samples are centrifuged, and the supernatants are analyzed by HPLC as described in Example 1. The molecular weights of the analytes are determined by electrospray ionization mass spectroscopy (ESI-MS) operating in positive ion mode. The supernatants are also used for a colorimetric assay with a para-nitrophenyl phosphate substrate to identify residual phosphatase enzyme activity and for a colorimetric assay with a syringaldazine substrate to identify any residual laccase enzyme activity.

laccase enzyme = test: Colorimetric assay with a syringaldazine substrate for residual laccase enzyme activity; format: biochemical, Psilocybe cubensis; conditions: relative to the water control
Description: The denaturation of relevant laccase enzymes may be assessed, for example, by performing a colorimetric assay with a laccase enzyme substrate such as syringaldazine or 2,2′-azino-bis(3-ethylbenzothiazoline-6-sulfonate) (ABTS). Syringaldazine comprises an aromatic structure with pendant hydroxyl groups, which is chemically similar to the indole of a hydroxytryptamine, and ABTS comprises a benzothiazoline, which is chemically similar to the indole of tryptamines generally. Colorimetric assays performed with a syringaldazine or ABTS substrate therefore provide suitable methods to assess laccase activity that are relevant to this disclosure.
as §1, §2, §3

[3] = cited from earlier work; remark: listed apart in the source
[4] = pH of 2.0 relative to pH of 3.0
[5] = pH of 7.0 relative to pH of 6.0
[6] = pH of 3.0 relative to pH of 2.0
[7] = pH of 6.0 relative to pH of 7.0

NCCc1c[nH]c2cccc(O)c12 [4-HT, 3-(2-aminoethyl)-1H-indol-4-ol]
absorbance detected for the hydroxytryptamine (dephosphorylation product) [1, 4]: greater absorbance | absorbance detected for the hydroxytryptamine (dephosphorylation product) [1, 5]: greater absorbance

C[N+](C)(C)CCc1c[nH]c2cccc(O)c12 [4-hydroxy-TMT, [2-(4-hydroxy-1H-indol-3-yl)ethyl]-trimethylazanium]
absorbance detected for the hydroxytryptamine (dephosphorylation product) [1, 4]: greater absorbance | absorbance detected for the hydroxytryptamine (dephosphorylation product) [1, 5]: greater absorbance

O=C(O)Cc1c[nH]c2ccccc12 [Indole-3-acetic acid, indole-3-acetic acid]
solubility in water [2]: insoluble in water

C[N+](C)(C)CCc1c[nH]c2cccc(OP(=O)(O)O)c12 [aeruginascin, [2-(4-phosphonooxy-1H-indol-3-yl)ethyl]-trimethylazanium]
absorbance detected for the phosphoryloxytryptamine [1, 6]: Greater absorbance | absorbance detected for the phosphoryloxytryptamine [1, 7]: Greater absorbance

N.N.O=S(=O)(O)O [ammonium sulfate]
phosphatase enzyme activity in the colorimetric assay (phosphatase enzyme): significantly less phosphatase enzyme activity | laccase enzyme activity in the colorimetric assay (laccase enzyme): significantly less laccase enzyme activity

CNCCc1c[nH]c2cccc(OP(=O)(O)O)c12 [baeocystin, [2-(4-phosphonooxy-1H-indol-3-yl)ethyl]-methylazanium]
absorbance detected for the phosphoryloxytryptamine [1, 6]: Greater absorbance | absorbance detected for the phosphoryloxytryptamine [1, 7]: Greater absorbance

Cl.N=C(N)N [guanidinium, guanidinium chloride]
phosphatase enzyme activity in the colorimetric assay (phosphatase enzyme): significantly less phosphatase enzyme activity | laccase enzyme activity in the colorimetric assay (laccase enzyme): significantly less laccase enzyme activity

NCCc1c[nH]c2cccc(OP(=O)(O)O)c12 [norbaeocystin, 2-(4-phosphonooxy-1H-indol-3-yl)ethylazanium]
absorbance detected for the phosphoryloxytryptamine [1, 6]: Greater absorbance | absorbance detected for the phosphoryloxytryptamine [1, 7]: Greater absorbance

CNCCc1c[nH]c2cccc(O)c12 [norpsilocin, 3-[2-(methylamino)ethyl]-1H-indol-4-ol]
absorbance detected for the hydroxytryptamine (dephosphorylation product) [1, 4]: greater absorbance | absorbance detected for the hydroxytryptamine (dephosphorylation product) [1, 5]: greater absorbance

CCCCCCCCO[C@@H]1O[C@H](CO)[C@@H](O)[C@H](O)[C@H]1O [octyl glucoside, octyl β-D-glucopyranoside]
phosphatase enzyme activity in the colorimetric assay (phosphatase enzyme): significantly less phosphatase enzyme activity | laccase enzyme activity in the colorimetric assay (laccase enzyme): significantly less laccase enzyme activity

CN(C)CCc1c[nH]c2cccc(O)c12 [psilocin, 3-[2-(dimethylamino)ethyl]-1H-indol-4-ol]
absorbance detected for the hydroxytryptamine (dephosphorylation product) [1, 4]: greater absorbance | absorbance detected for the hydroxytryptamine (dephosphorylation product) [1, 5]: greater absorbance

CN(C)CCc1c[nH]c2cccc(OP(=O)(O)O)c12 [psilocybin]
pKa of the azanium of psilocybin ([3]; conjugate acid of the amino): about 10.4 | pKa of the dihydrogen phosphate of psilocybin (lowest pKa) ([3]; first phosphate pKa): about 1.3

CCCCCCCCCCCCOS(=O)(=O)[O-].[Na+] [sodium dodecyl sulfate]
phosphatase enzyme activity in the colorimetric assay (phosphatase enzyme): significantly less phosphatase enzyme activity | laccase enzyme activity in the colorimetric assay (laccase enzyme): significantly less laccase enzyme activity

OCCc1c[nH]c2ccccc12 [tryptophol]
solubility in water [2]: insoluble in water

NC(N)=O [urea]
phosphatase enzyme activity in the colorimetric assay (phosphatase enzyme): significantly less phosphatase enzyme activity | laccase enzyme activity in the colorimetric assay (laccase enzyme): significantly less laccase enzyme activity

Chitin
solubility in water [2]: insoluble in water

polyethylene glycol 4-(2,4,4-trimethylpent-2-yl)phenyl ether [Triton X-100]
phosphatase enzyme activity in the colorimetric assay (phosphatase enzyme): significantly less phosphatase enzyme activity | laccase enzyme activity in the colorimetric assay (laccase enzyme): significantly less laccase enzyme activity
